Results as given in article PMC4761355, “Pre-clinical evaluation of eight DOTA coupled gastrin-releasing peptide receptor (GRP-R) ligands for in vivo targeting of receptor-expressing tumors” (EJNMMI Research, 2016).
Like-named read-outs stand apart in the source and are kept apart here. Where a SMILES comes first, the peptide text is derived from it. [ ]: non-standard residue; d: D form. The star is where a group is joined. DOTA = O=C(O)CN1CCN(CC(=O)O)CCN(CC(=O)*)CCN(CC(=O)O)CC1; Sta = CC(C)C[C@H](N)[C@@H](O)CC(=O)O; Cha = N[C@@H](CC1CCCCC1)C(=O)O; Nle = CCCC[C@H](N)C(=O)O; AEEA = NCCOCCOCC(=O)O; Sar = CNCC(=O)O

Experiments:
PC-3 xenografts [1] = assay: Biodistribution in nude mice bearing subcutaneous PC-3 xenografts; type: in vivo, CD1 nude mice
Method: (§1) For animal experiments, the institutional and national guide for the care and use of laboratory animals was followed. CD1 nude mice (n = 36, female, 6 weeks old, 18-22 g body weight) were subcutaneously injected in the right thigh with 2 × 10^6 PC-3 cells in 300 μl of a medium-to-matrigel solution (50:50, v:v, BD Biosciences). […] DOTA-PEG4-BN conjugates were radiolabelled with ^111In as described elsewhere, and 1.85 MBq (0.25 μg, 7.4 MBq/μg in 100 μl NaCl) of radiopharmaceutical was injected in the tail vein of each animal. Injected dose was determined by counting the syringe before and after injection. At 1 h post injection, three mice per group were anesthetized and placed on a horizontal support for planar imaging. The same procedure was repeated at 6 h and 24 h post injection. Images were acquired for 60 to 90 s with a high-resolution scintigraphic camera equipped with a square tungsten collimator integrated with a CsI(Tl) scintillation structure, coupled to a Hamamatsu […] Flat Panel Position Sensitive Photomultiplier Tube (PSPMT), a pure tungsten shielding housing, a charge readout electronics, and a data acquisition system for online image display. Region of interest (ROI) analysis was performed by drawing a region over the visible tumor (target) and copying it to the opposite thigh (background). The counts in the tumor ROI divided by the counts in the background ROI provided tumor-to-background (T/B) ratios. After each imaging session, mice were euthanized. The organs and the tumors were excised and weighed, and the radioactivity was determined using a single well γ-counter. Results were expressed as percentage of injected dose per gram (%ID/g) of tissue.

[2] = target: T1, gastrin-releasing peptide receptor (GRP-R) on PC-3 human prostate cancer cells (Homo sapiens, UniProt P30550); assay: Saturation binding experiments on whole PC-3 cells with 111In-labeled DOTA-PEG4-BN conjugates; settings: 4 °C; for B max (binding sites/cell) *10^5: 111In-labeled
T1 construct: endogenous in cells; host or cells: PC-3 human prostate cancer cells
Method: DOTA-PEG4-BN conjugates were studied in vitro performing saturation binding experiments on whole cells. The DOTA coupled derivatives were labeled in Eppendorf tubes containing 10 μL of ^111InCl3 (50–150 KBq/μL), 1 nmol of peptide (10 μM final concentration), and sodium acetate buffer (0.4 M, pH 5) adjusted to a final volume of 100 μL. The solution was incubated for 30 min at 95 °C in a heating block. Silica gel thin layer chromatography using 0.1 N sodium citrate (pH 5) as mobile phase was utilized for quality control. […] Saturation of free chelators with cold indium was not performed. Confluent PC-3 human prostate cancer cells were seeded in six-well plates (~1.0 × 10^6 cells) 24 h before starting the experiments. Increasing concentrations of the ^111In-DOTA-peptide ranging from 50 to 0.05 nM were assigned to different wells. For blocking experiments, excess of the respective unlabeled peptide was used. For each radioligand, triplicates were prepared for every concentration, for both total binding and nonspecific binding. Before adding the radioligands to the wells, the plates were placed on ice for 30 min. After adding the radioligands and the blocking for nonspecific binding, the plates were incubated for 1 h at 4 °C. Afterwards, the binding buffer was removed and the cells were washed twice with ice-cold phosphate-buffered saline (PBS; pH 7.4). Cell-bound radioactivity was subsequently recovered by trypsinization of the wells. Radioactivity in the bound and free fractions was determined with a WIZARD gamma counter (Wallac, Turku, Finland). Specific binding was calculated by subtracting nonspecific from total binding at each concentration of radioligand. Affinity (Kd) and binding site density (Bmax) were calculated from Scatchard plots using Prism software (GraphPad Software Inc.).
Saturation binding experiments were performed on PC-3 cells at 4 °C.

[3] = Serum stability of 177Lu-labeled peptides in human serum; type: in vitro ADME; settings: human serum (freshly prepared), 37 °C
Method: Quality controls to determine the labeling yield and the radiochemical purity were performed using radio-HPLC. Radiolabeled peptides were utilized without further purification. […] The mixture was incubated in a 5 % CO2, 37 °C. At different time points, 100 μL aliquots (in triplicates) were removed and treated with 200 μL of EtOH to precipitate serum proteins. Samples were then centrifuged for 15 min at 5000 rpm (2655g). After centrifugation, 50 μL of supernatant was removed and counted in a γ-well counter; the sediment was washed twice with 1 mL of EtOH and counted. The activity in the supernatant was compared with the activity in the pellet to obtain the percentage of peptide not bound to proteins or radiometal transferred to serum proteins. The supernatant was also analyzed with radio-HPLC (eluents: A = 0.1 % trifluoroacetic acid in water and B = acetonitrile; gradient 0–25 min 95–50 % B) to determine the relative amount of intact peptide and its metabolites in the serum. The half-life was calculated fitting a first-order reaction to the experimental data (Equation 1) using Prism software (GraphPad Software Inc.).

[4] = Biodistribution in nude mice bearing subcutaneous PC-3 xenografts; type: in vivo, CD1 nude mice; settings: female, CD1 nude, mouse, blood, iv, 0.25 μg, total radioactivity; 111In-labeled, 1 h post injection
Method: as §1

PC-3 xenografts [5] = assay: Gamma camera planar imaging, tumor-to-background ROI analysis in mice with PC-3 xenografts; type: in vivo, CD1 nude mice
Method: as §1, with “Region of interest (ROI) analysis was performed by drawing a region over the visible tumor (target) and copying it to the opposite thigh (background). The counts in the tumor ROI divided by the counts in the background ROI provided tumor-to-background (T/B) ratios. After each imaging session, mice were euthanized.” left out

[6] = 111In-labeled, i.v., 1, 6, 24 h
[7] = first-order fit, read-out: Serum half-life (converted)

T1 sequence (P30550 whole entry): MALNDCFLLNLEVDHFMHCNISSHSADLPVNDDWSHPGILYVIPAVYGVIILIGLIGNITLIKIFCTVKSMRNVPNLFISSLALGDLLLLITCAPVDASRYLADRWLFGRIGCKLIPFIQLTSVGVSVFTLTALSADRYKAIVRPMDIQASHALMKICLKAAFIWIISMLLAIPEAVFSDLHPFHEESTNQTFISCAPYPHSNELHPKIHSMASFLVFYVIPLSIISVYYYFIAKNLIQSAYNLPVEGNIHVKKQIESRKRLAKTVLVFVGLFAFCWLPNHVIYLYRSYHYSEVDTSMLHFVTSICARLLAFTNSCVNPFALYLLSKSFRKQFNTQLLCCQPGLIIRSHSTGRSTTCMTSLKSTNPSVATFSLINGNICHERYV

Structure (SMILES) | B max (binding sites/cell) *10^5 [2] [binding sites/cell *10^5] | half-life at 0.6 nmol/mL [3, 7] [h] | Tumor targeting / uptake in PC-3 xenografts (in words) (PC-3 xenografts [1]; [6]) | other results
CSCC[C@H](NC(=O)[C@H](CC(C)C)NC(=O)[C@H](Cc1c[nH]cn1)NC(=O)CNC(=O)[C@@H](NC(=O)[C@H](C)NC(=O)[C@H](Cc1c[nH]c2ccccc12)NC(=O)[C@H](CCC(N)=O)NC(=O)COCCOCCNC(=O)COCCOCCNC(=O)CN1CCN(CC(=O)O)CCN(CC(=O)O)CCN(CC(=O)O)CC1)C(C)C)C(N)=O [BN1] | 2.45 ± 0.73 |  | rather poor | Blood clearance / circulating half-life (in words) (PC-3 xenografts [1]; mouse, in vivo, iv): very rapid blood clearance
CCCC[C@H](NC(=O)[C@H](CC1CCCCC1)NC(=O)[C@H](Cc1c[nH]cn1)NC(=O)CNC(=O)[C@@H](NC(=O)[C@H](C)NC(=O)[C@H](Cc1c[nH]c2ccccc12)NC(=O)[C@H](CCC(N)=O)NC(=O)COCCOCCNC(=O)COCCOCCNC(=O)CN1CCN(CC(=O)O)CCN(CC(=O)O)CCN(CC(=O)O)CC1)C(C)C)C(N)=O [BN2, -Gln-Trp-Ala-Val-Gly-His-Cha-Nle-NH2] ({DOTA-AEEA-AEEA}-QWAVGH[Cha][Nle]-NH2) | 4.10 ± 1.23 | ~20 |  | 
CCCC[C@H](NC(=O)[C@H](CC1CCCCC1)NC(=O)[C@H](Cc1c[nH]cn1)NC(=O)CNC(=O)[C@@H](NC(=O)[C@H](C)NC(=O)[C@H](Cc1c[nH]c2ccccc12)NC(=O)[C@H](CCC(N)=O)NC(=O)COCCOCCNC(=O)COCCOCCNC(=O)CN1CCN(CC(=O)O)CCN(CC(=O)O)CCN(CC(=O)O)CC1)C(C)C)C(=O)N[C@@H](CCC(=O)O)C(N)=O [BN3, -Gln-Trp-Ala-Val-Gly-His-Cha-Nle-Glu-NH2] ({DOTA-AEEA-AEEA}-QWAVGH[Cha][Nle]E-NH2) |  | 40.7 |  | Specific binding to PC-3 cells (in words) [2]: no specific binding was detectable
CCCC[C@H](NC(=O)[C@H](CC1CCCCC1)NC(=O)[C@H](Cc1c[nH]cn1)NC(=O)CNC(=O)[C@@H](NC(=O)[C@H](C)NC(=O)[C@H](Cc1c[nH]c2ccccc12)NC(=O)[C@H](CCC(N)=O)NC(=O)[C@@H](Cc1ccccc1)NC(=O)COCCOCCNC(=O)COCCOCCNC(=O)CN1CCN(CC(=O)O)CCN(CC(=O)O)CCN(CC(=O)O)CC1)C(C)C)C(N)=O [BN7, -DPhe-Gln-Trp-Ala-Val-Gly-His-Cha-Nle-NH2] |  | ~20 | overall poor targeting to the receptor-positive xenografts | Blood clearance / circulating half-life (in words) (PC-3 xenografts [1]; [6]): very rapid blood clearance
CC(C)C[C@H](NC(=O)C[C@H](O)[C@H](CC(C)C)NC(=O)[C@H](Cc1c[nH]cn1)NC(=O)CN(C)C(=O)[C@@H](NC(=O)[C@H](C)NC(=O)[C@H](Cc1c[nH]c2ccccc12)NC(=O)[C@H](CCC(N)=O)NC(=O)[C@@H](Cc1ccccc1)NC(=O)COCCOCCNC(=O)COCCOCCNC(=O)CN1CCN(CC(=O)O)CCN(CC(=O)O)CCN(CC(=O)O)CC1)C(C)C)C(N)=O [BN8, DOTA-PEG-DPhe-Gln-Trp-Ala-Val-NMeGly-His-Sta-Leu-NH2] |  | 414 | highest tumor uptake | half-life at 0.6 nmol/mL ([3]; read-out: Serum/plasma half-life): > 360 h; Imaging contrast of tumor uptake (in words) (PC-3 xenografts [5]; gamma camera, 6 h post injection): best contrast of tumor uptake compared to other organs

Second part, led by results:

B max (binding sites/cell) *10^5 [2] [binding sites/cell *10^5] | half-life at 0.6 nmol/mL [3, 7] [h] | Structure (SMILES) | Tumor targeting / uptake in PC-3 xenografts (in words) (PC-3 xenografts [1]; [6]) | other results
5.54 ± 1.56 | 224 | CC(C)C[C@H](NC(=O)C[C@H](O)[C@H](CC(C)C)NC(=O)[C@H](Cc1c[nH]cn1)NC(=O)CNC(=O)[C@@H](NC(=O)[C@H](C)NC(=O)[C@H](Cc1c[nH]c2ccccc12)NC(=O)[C@H](CCC(N)=O)NC(=O)COCCOCCNC(=O)COCCOCCNC(=O)CN1CCN(CC(=O)O)CCN(CC(=O)O)CCN(CC(=O)O)CC1)C(C)C)C(N)=O [BN4, -Gln-Trp-Ala-Val-Gly-His-Sta-Leu-NH2] ({DOTA-AEEA-AEEA}-QWAVGH[Sta]L-NH2) | very high initial uptake that dropped at later time points | tissue uptake at 1 h [4]: ~5 %ID/g; Blood clearance / circulating half-life (in words) (PC-3 xenografts [1]; [6]): longest circulating half-life of all tested compounds; Tumor-to-background (T/B) ratios in vivo (in words) (PC-3 xenografts [5]; 111In-labeled, tumor ROI vs opposite thigh): least favorable of all peptides
1.56 ± 0.39 |  | CC(C)C[C@H](NC(=O)C[C@H](O)[C@H](CC(C)C)NC(=O)[C@H](Cc1c[nH]cn1)NC(=O)CN(C)C(=O)[C@@H](NC(=O)[C@H](C)NC(=O)[C@H](Cc1c[nH]c2ccccc12)NC(=O)[C@H](CCC(N)=O)NC(=O)COCCOCCNC(=O)COCCOCCNC(=O)CN1CCN(CC(=O)O)CCN(CC(=O)O)CCN(CC(=O)O)CC1)C(C)C)C(N)=O [BN5, -Gln-Trp-Ala-Val-NMeGly-His-Sta-Leu-NH2] ({DOTA-AEEA-AEEA}-QWAV[Sar]H[Sta]L-NH2) |  | 
 | 208 | CC(C)C[C@H](NC(=O)C[C@H](O)[C@H](CC(C)C)NC(=O)[C@H](Cc1c[nH]cn1)NC(=O)CNC(=O)[C@@H](NC(=O)[C@H](C)NC(=O)[C@H](Cc1c[nH]c2ccccc12)NC(=O)[C@H](CCC(N)=O)NC(=O)[C@@H](Cc1ccccc1)NC(=O)COCCOCCNC(=O)COCCOCCNC(=O)CN1CCN(CC(=O)O)CCN(CC(=O)O)CCN(CC(=O)O)CC1)C(C)C)C(N)=O [BN6, -DPhe-Gln-Trp-Ala-Val-Gly-His-Sta-Leu-NH2] |  | 
